Measurements published in patent publication US20160346255A1, “METHODS, AGENTS AND COMPOSITIONS FOR TREATMENT OF INFLAMMATORY CONDITIONS” (Betanien Hospital, priority 2014, published 2016).
Non-standard residues stand in square brackets, D forms with d. Residues, ends and D or L forms follow the SMILES beside them. *: point of attachment. dPhe(4-NHCONH2) = NC(=O)Nc1ccc(C[C@@H](N)C(=O)O)cc1; Dihydroorotyl(S) = O=C1C[C@@H](C(=O)*)NC(=O)N1; dPhe(4-Cl) = N[C@H](Cc1ccc(Cl)cc1)C(=O)O; Phe(4-NH2) = Nc1ccc(C[C@H](N)C(=O)O)cc1; d2Nal = N[C@H](Cc1ccc2ccccc2c1)C(=O)O; Lys(iPr) = CC(C)NCCCC[C@H](N)C(=O)O; d3Pal = N[C@H](Cc1cccnc1)C(=O)O

What was measured:
[1] = test system: Patient with Multiple Sclerosis; experiment: Multiple sclerosis patient treated with degarelix (with concomitant fampridine); assay type: in vivo, human
Description: • person, diagnosed with multiple sclerosis (MS). Their MS was of the progressive type; characterized by a steady deterioration in function. • Fulfilled the 2010 McDonald Criteria for the diagnosis of MS (1).
• So far results of clinical trials for progressive MS have generally been disappointing. Currently, there is no FDA-approved treatment for progressive MS disease. • December 2014 received first dose of degarelix 240 mg s.c. • Received degarelix 80 mg s.c. every two weeks thereafter.
• This patient's EDSS has remained stable at 6.5, as expected over such a short time period of 6 weeks. A score of 6.5 is equivalent to only being able to walk with the aid of a walker, as in their case. This was evident at baseline and 6 weeks.
• Patient-reported outcomes are of increasing importance in trials of progressive multiple sclerosis (2). The most frequently used global patient-reported outcome in multiple sclerosis is the MSIS-29 (3). This has been correlated with clinical and imaging metrics specifically in progressive forms of the disease (4). According to a recent review (2), patient reported outcomes in trials of progressive multiple sclerosis can be used to validate MRI or clinical metrics, and increased use of patient-reported outcomes in trials of progressive multiple sclerosis will be expected to help satisfy regulators' requirements that treatments show relevant benefit for patients. • At baseline, they scored 121 on the MSIS-29. By 6 weeks, their score was reduced to 110. A clinically significant minimal difference is a score change of 8. Therefore this reduction of 11 in their score is considered clinically significant (5).
• The MSWS-12 (6) was designed as a disease-specific patient-based instrument for use in clinical trials and clinical practice, to capture the complex impact of MS on walking ability. […] One of the most important attributes of the MSWS-12 in comparison to other assessments of walking in MS patients is its responsiveness to change. […] By 6 weeks, their score was reduced to 53. This is a 12% improvement. A minimal clinically significant difference has not yet been established.
• The MFIS-5 is a modified form of the Fatigue Impact Scale (10) based on items derived from interviews with MS patients concerning how fatigue impacts their lives. This instrument provides an assessment of the effects of fatigue in terms of physical, cognitive, and psychosocial functioning. • At baseline, they scored 20 on the MFIS-5. By 6 weeks, their score was reduced to 12. This was a reduction of 40%, which is clinically significant.
• The T25FW is another common endpoint in trials. At baseline, they took 16.7 seconds to walk 25 feet, and by 6 weeks they took 15.2 seconds. This improvement in walking speed supports the patient's reported improved outcomes. […] This improvement in progressive MS is likely to also be observed in the relapsing-remitting type of MS. This is because the relapsing-remitting type gives similar signs and symptoms as the progressive type to patients over time.
• For the last 2.5 years, they had been taking stable concomitant fampridine, a potassium channel blocker, for symptomatic treatment for MS. Their MS disease activity had been increasing gradually over these 2.5 years, requiring them to use crutches, and eventually a walker. In December 2014, they started experimental treatment with degarelix. […] They describe in an interview that for the first time they could easily complete certain exercises with their under extremities that they had previously never been able to do during their physiotherapy visits. • Due to this effect, they decided to discontinue their long-term stable fampridine medication on 05.04.15. […] This improvement in progressive MS is likely to also be observed in the relapsing-remitting type of MS. This is because the relapsing-remitting type gives similar signs and symptoms as the progressive type to patients over time.

[2] = test system: Patients with Rheumatoid Arthritis; experiment: Rheumatoid arthritis patients treated with degarelix: laboratory variables; assay type: in vivo, human; parameters: LH: unit not given beside the values
Source text: [table] […] Examples of Patients with Continued RA Improvement Over Several Weeks Despite Stably Low Levels of LH

[3] = progressive MS patient, by 6 weeks

CC(=O)N[C@H](Cc1ccc2ccccc2c1)C(=O)N[C@H](Cc1ccc(Cl)cc1)C(=O)N[C@H](Cc1cccnc1)C(=O)N[C@@H](CO)C(=O)N[C@@H](Cc1ccc(NC(=O)[C@@H]2CC(=O)NC(=O)N2)cc1)C(=O)N[C@H](Cc1ccc(NC(N)=O)cc1)C(=O)N[C@@H](CC(C)C)C(=O)N[C@@H](CCCCNC(C)C)C(=O)N1CCC[C@H]1C(=O)N[C@H](C)C(N)=O [degarelix] (Ac-[d2Nal][dPhe(4-Cl)][d3Pal]S[Phe(4-NH2)](Dihydroorotyl(S))[dPhe(4-NHCONH2)]L[Lys(iPr)]P[dA]-NH2)
Timed walk test ([1]; MS patient, 29.4.15, after fampridine discontinued 05.04.15, from 11.9): 14.0 s | Expanded Disability Status Scale (EDSS) ([1]; progressive MS patient, 6 weeks, stable vs baseline): 6.5 | MFIS-5 reduction [1, 3]: 40% | MSIS-29 score reduction [1, 3]: 11 | MSWS-12 improvement [1, 3]: 12% | MFIS-5 score ([1]; progressive MS patient, by 6 weeks, baseline 20): 12 | MSWS-12 score ([1]; progressive MS patient, by 6 weeks, baseline 60): 53 | MSIS-29 score ([1]; progressive MS patient, by 6 weeks, baseline 121): 110 | Timed 25 Foot Walk (T25FW) ([1]; progressive MS patient, by 6 weeks, stable fampridine, baseline 16.7): 15.2 s | General function (patient reported) ([1]; progressive MS patient, from around 4 weeks, further by 6 weeks): general improvement | HbA1c (4.3-6.1), final ([2]; Patient 1, by 24 wks, baseline 6.4, * normalized): 6.4, 6.1* | Rheumatoid factor (<14), final ([2]; Patient 1, by 24 wks, baseline 7): 7, 9 | LH, final ([2]; Patient 1, by 24 wks, baseline 22): 22, <0. | FSH, final ([2]; Patient 1, by 24 wks, baseline 38): 38, 1 | ESR (erythrocyte sedimentation rate), final ([2]; Patient 1, by 24 wks, baseline 46, * normalized): 46, 24 * | CRP (<5), final ([2]; Patient 1, by 24 wks, baseline 63): 63, 16 | Blood Pressure, final ([2]; Patient 1, by 24 wks, baseline 151/90, * normalized): 151/90, 120/71 * | CCP antibody (<10), final ([2]; Patient 1, by 24 wks, baseline NEG): NEG, NEG | HbA1c (4.3-6.1), final ([2]; Patient 2, by 15 wks, baseline 5.3): 5.3, 5.3 | LH, final ([2]; Patient 2, by 15 wks, baseline 36): 36, <0.3 | CRP (<5), final ([2]; Patient 2, by 15 wks, baseline 44): 44, 23 | Rheumatoid factor (<14), final ([2]; Patient 2, by 15 wks, baseline 51): 51, 38 | ESR (erythrocyte sedimentation rate), final ([2]; Patient 2, by 15 wks, baseline 51, * normalized): 51, 16* | FSH, final ([2]; Patient 2, by 15 wks, baseline 72): 72, 0.4 | CCP antibody (<10), final ([2]; Patient 2, by 15 wks, baseline 101): 101, 70 | Blood Pressure, final ([2]; Patient 2, by 15 wks, baseline 118/82): 118/82, 126/80 | LH ([2]; Patient 3, 4 wks, baseline 2): <0.3 | ESR ([2]; Patient 3, 4 wks, baseline 46): 41 | LH ([2]; Patient 3, 8 wks, baseline 2): <0.3 | ESR ([2]; Patient 3, 8 wks, baseline 46): 36 | LH ([2]; Patient 3, 12 wks, baseline 2): <0.3 | ESR ([2]; Patient 3, 12 wks, baseline 46): 20 | LH, final ([2]; Patient 3, by 12 wks, baseline 2): 2, >0.3 | HbA1c (4.3-6.1), final ([2]; Patient 3, by 12 wks, baseline 5.1): 5.1, 5.4 | FSH, final ([2]; Patient 3, by 12 wks, baseline 6): 6, 1 | CRP (<5), final ([2]; Patient 3, by 12 wks, baseline 33): 33, 19 | ESR (erythrocyte sedimentation rate), final ([2]; Patient 3, by 12 wks, baseline 46, * normalized): 46, 20 * | CCP antibody (<10), final ([2]; Patient 3, by 12 wks, baseline 102): 102, 101 | Blood Pressure, final ([2]; Patient 3, by 12 wks, baseline 110/68): 110/68; 110/66 | Rheumatoid factor (<14), final ([2]; Patient 3, by 12 wks, baseline 178): 178, 163 | LH ([2]; Patient 4, 3½ wks, baseline 8): <0.3 | ESR ([2]; Patient 4, 3½ wks, baseline 78): 68 | LH ([2]; Patient 4, 9 wks, baseline 8): <0.3 | ESR ([2]; Patient 4, 9 wks, baseline 78): 36 | HbA1c (4.3-6.1), final ([2]; Patient 4, by 9 wks, baseline 6.9): 6.9, 6.4 | LH, final ([2]; Patient 4, by 9 wks, baseline 8): 8, <0.3 | FSH, final ([2]; Patient 4, by 9 wks, baseline 15, * normalized): 15, 0.7* | ESR (erythrocyte sedimentation rate), final ([2]; Patient 4, by 9 wks, baseline 78): 78, 36 | Blood Pressure, final ([2]; Patient 4, by 9 wks, baseline 130/80): 130/80; 120/78 | CRP (<5), final ([2]; Patient 4, by 9 wks, baseline 142): 142, 56 | Rheumatoid factor (<14), final ([2]; Patient 4, by 9 wks, baseline >200, above limit): >200, >200 | CCP antibody (<10), final ([2]; Patient 4, by 9 wks, baseline >340, above limit): >340, >340 | HbA1c (4.3-6.1), final ([2]; Patient 5, by 7 wks, baseline 5.1): 5.1, 5.5 | ESR (erythrocyte sedimentation rate), final ([2]; Patient 5, by 7 wks, baseline 28): 28, 8 | LH, final ([2]; Patient 5, by 7 wks, baseline 44): 44, <0.3 | FSH, final ([2]; Patient 5, by 7 wks, baseline 64): 64, <0.1 | Blood Pressure, final ([2]; Patient 5, by 7 wks, baseline 134/79): 134/79; 124/80 | Rheumatoid factor (<14), final ([2]; Patient 5, by 7 wks, baseline 167): 167, >200 | CCP antibody (<10), final ([2]; Patient 5, by 7 wks, baseline 257): 257, 235 | CRP (<5), final ([2]; Patient 5, by 7 wks, baseline <5): <5, 6 | HbA1c (4.3-6.1), final ([2]; Patient 6, by 3 ½ wks, baseline 5.5): 5.5, 5.4 | Rheumatoid factor (<14), final ([2]; Patient 6, by 3 ½ wks, baseline 8): 8, 8 | CRP (<5), final ([2]; Patient 6, by 3 ½ wks, baseline 22, * normalized): 22, <5* | LH, final ([2]; Patient 6, by 3 ½ wks, baseline 30): 30, <0.3 | ESR (erythrocyte sedimentation rate), final ([2]; Patient 6, by 3 ½ wks, baseline 37, * normalized): 37, 24* | FSH, final ([2]; Patient 6, by 3 ½ wks, baseline 79): 79, 0.6 | Blood Pressure, final ([2]; Patient 6, by 3 ½ wks, baseline 90/60): 90/60; 100/64 | CCP antibody (<10), final ([2]; Patient 6, by 3 ½ wks, baseline NEG): NEG, NEG
